The record followed here is patent publication US20250346616A1 (DIZAL (JIANGSU) PHARMACEUTICAL CO., LTD., priority 2022, published 2025).

Bounds are passed on as bounds.

A word on the IC50: it is the midpoint of a concentration-inhibition curve. The term EC50 denotes the concentration giving half of the maximal effect. A high value points to a less potent agent.

Experiment [1] concerns pMLC2. Nature of the experiment: Cellular PD assay, pMLC2 in PASMC (western blot). The format is cell-based. The note with it: Human Pulmonary Artery Smooth Muscle Cells, 30 min incubation. As for the experimental part:
(§1) PASMC (Human Pulmonary Artery Smooth Muscle Cells) were grown in Smooth Muscle Cell Growth medium (Promocell #C-22162). The cells were resuspended at 3×10^5 cells per well in 6-well plate in Smooth Muscle Cell Growth medium (Promocell #C-22162) and incubated compound concentration range: (10000/1111/333/111/37/12.3/4.1/0.41/0 nM) for 30 min.
(§2) Cells were then placed on ice and washed with ice-cold PBS. Cell lysates were prepared with 2×SDS. Separate proteins by SDS-PAGE 2 hr, transfer of proteins form gel to membrane 90 min, Blocking the membrane with 5% milk 1 hr and incubation in primary antibody overnight at 4° C., Incubate the membrane in HRP-conjugated secondary antibody diluted in blocking buffer (1:2000) for 1 hour at room temperature. Detection using Amersham ECL plus western blotting detection system (LAS4000). The purified product was analysed by SDS PAGE and the amount of target protein calculated by gray scanning by Multi-Gauge V3.0 software.
Background: A western blot detects proteins with antibodies after separation by electrophoresis.

Experiment [2] concerns the target Recombinant ROCK1 (Homo sapiens (Human), UniProt Q13464). Nature of the experiment: Lance Ultra Kinase Assay, ROCK1 inhibition. The format is biochemical. The note with it: ATP at Km, 30 min pre-incubation, 1 h reaction.
The subject of experiment [3] is HepG2 cells. Nature of the experiment: Cell-based phospholipidosis assay (LipidTOX Red). The note with it: Homo sapiens, 24 h, LipidTOX Red dye. As for the experimental part: HepG2 cells were dispensed into Collagen I-coated 96-well black wall/clear bottom assay plates at 5000 cells/90 μL/well.
The assay plates were then incubated at 37° C. for 24 h, […] of 8% paraformaldehyde (4% final) fixative solution containing 8 μg/ml Hoechst 33342 (4 ug/mL final) in DPBS was added to each well. After incubation at room temperature for 25 min, the assay plates were washed with DPBS. The assay plates were sealed and stored at 4° C. before imaging.
The fluorescence intensities (595 nm excitation, 615 nm emission for LipidTOX Red; 352 nm excitation, 461 nm emission for Hoechst 33342) were measured using an High Content Screening System (Operetta, PerkinElmer) with a 10×Fluor objective. […] Average intensities were subjected to Prism and EC50 were calculated.

Experiment [4] has as its target Recombinant ROCK2 (Homo sapiens (Human), UniProt O75116). Nature of the experiment: Lance Ultra Kinase Assay, ROCK2 inhibition. The format is biochemical. The note with it: ATP at Km, 30 min pre-incubation, 1 h reaction.
Protocol: The inhibition potency of compounds against these enzymes was assessed using Lance Ultra Kinase Assay. In brief, recombinant kinases were pre-incubated in the presence or absence of compound at room temperature for 30 minutes. The reaction was initiated by the addition of the ATP (Km) and substrate peptide which could be phosphorylated by kinases in the reaction. After 1 h incubation, the reaction was stopped by the addition of the detection reagent mix containing EDTA. The fluorescence was measured at 615 nm and 665 nm, respectively with excitation wavelength at 320 nm. The calculated signal ratio of 665 nm/615 nm is proportional to the kinase activity.
For experiment [5], the system named is pMYPT1. Kind of experiment: Cellular PD assay, pMYPT1 in PASMC (western blot). The format is cell-based. The note with it: Human Pulmonary Artery Smooth Muscle Cells, 30 min incubation. The procedure: as §1, §2

Recombinant ROCK1, sequence (Q13464 whole entry): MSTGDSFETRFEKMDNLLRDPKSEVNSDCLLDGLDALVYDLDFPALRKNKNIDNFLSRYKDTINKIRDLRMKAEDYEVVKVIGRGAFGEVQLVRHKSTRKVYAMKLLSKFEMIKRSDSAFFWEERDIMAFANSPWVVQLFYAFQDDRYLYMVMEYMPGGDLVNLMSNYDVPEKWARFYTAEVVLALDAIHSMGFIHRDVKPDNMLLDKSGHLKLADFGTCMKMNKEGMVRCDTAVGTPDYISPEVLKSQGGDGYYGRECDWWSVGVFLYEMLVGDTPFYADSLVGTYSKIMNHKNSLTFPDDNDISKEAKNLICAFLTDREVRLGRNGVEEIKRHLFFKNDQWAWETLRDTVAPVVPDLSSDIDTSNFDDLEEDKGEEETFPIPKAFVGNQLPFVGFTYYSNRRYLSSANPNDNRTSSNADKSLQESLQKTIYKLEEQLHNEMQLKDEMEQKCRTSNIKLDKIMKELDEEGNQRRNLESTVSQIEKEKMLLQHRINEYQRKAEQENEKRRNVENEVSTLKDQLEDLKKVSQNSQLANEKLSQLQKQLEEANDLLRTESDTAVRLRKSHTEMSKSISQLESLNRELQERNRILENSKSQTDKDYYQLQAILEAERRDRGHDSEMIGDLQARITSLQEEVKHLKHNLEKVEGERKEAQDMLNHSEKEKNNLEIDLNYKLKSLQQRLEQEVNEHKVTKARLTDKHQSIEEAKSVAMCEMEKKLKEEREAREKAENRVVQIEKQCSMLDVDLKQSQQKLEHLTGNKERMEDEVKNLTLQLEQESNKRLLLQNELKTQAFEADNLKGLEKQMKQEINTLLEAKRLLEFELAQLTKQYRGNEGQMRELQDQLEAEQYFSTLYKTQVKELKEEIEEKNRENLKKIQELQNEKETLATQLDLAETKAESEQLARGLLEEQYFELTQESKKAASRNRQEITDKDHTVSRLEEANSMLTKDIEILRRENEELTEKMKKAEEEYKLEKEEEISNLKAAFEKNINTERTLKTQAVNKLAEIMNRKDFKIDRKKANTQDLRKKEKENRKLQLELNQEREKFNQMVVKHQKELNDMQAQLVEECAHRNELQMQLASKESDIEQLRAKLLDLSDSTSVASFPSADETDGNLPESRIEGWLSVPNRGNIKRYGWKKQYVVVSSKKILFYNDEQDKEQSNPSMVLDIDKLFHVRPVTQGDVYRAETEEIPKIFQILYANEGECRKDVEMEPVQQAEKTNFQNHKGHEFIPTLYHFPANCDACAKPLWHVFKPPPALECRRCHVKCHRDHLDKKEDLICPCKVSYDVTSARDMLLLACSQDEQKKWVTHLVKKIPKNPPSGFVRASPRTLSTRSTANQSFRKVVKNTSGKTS
Recombinant ROCK2, sequence (O75116 whole entry): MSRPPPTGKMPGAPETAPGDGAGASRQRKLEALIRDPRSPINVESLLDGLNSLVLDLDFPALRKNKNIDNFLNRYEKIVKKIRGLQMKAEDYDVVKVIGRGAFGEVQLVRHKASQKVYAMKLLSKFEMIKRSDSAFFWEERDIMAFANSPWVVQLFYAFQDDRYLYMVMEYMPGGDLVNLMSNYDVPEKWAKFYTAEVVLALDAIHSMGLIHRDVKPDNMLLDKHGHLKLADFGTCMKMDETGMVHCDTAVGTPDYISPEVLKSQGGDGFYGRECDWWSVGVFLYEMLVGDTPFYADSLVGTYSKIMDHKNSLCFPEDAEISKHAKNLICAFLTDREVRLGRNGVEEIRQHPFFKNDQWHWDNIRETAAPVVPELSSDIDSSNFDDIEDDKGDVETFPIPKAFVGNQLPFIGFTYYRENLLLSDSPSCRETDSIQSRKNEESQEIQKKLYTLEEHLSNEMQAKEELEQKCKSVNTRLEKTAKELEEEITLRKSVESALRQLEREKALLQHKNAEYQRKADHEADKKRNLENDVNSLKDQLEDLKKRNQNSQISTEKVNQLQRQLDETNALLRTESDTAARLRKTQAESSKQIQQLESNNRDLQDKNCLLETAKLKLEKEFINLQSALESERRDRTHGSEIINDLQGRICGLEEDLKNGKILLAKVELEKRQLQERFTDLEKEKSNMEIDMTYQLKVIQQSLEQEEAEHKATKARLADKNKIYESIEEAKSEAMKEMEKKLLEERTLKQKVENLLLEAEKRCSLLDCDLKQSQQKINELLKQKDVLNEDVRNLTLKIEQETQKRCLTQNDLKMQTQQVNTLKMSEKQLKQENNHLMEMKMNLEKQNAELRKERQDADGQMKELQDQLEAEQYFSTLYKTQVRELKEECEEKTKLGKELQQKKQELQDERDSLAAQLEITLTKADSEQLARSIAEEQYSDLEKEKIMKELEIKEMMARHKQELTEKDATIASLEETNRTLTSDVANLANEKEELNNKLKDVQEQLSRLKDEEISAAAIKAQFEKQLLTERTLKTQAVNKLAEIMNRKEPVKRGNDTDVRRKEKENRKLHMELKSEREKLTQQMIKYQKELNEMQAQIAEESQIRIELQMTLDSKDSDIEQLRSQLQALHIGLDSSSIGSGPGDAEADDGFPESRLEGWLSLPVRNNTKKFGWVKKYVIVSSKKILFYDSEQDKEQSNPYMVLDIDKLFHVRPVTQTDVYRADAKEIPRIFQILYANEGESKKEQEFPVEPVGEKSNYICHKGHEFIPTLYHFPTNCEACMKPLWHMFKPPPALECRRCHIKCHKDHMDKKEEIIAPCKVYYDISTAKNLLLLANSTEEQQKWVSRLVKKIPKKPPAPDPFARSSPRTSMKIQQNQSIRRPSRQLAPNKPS

As to `NC(C(=O)Nc1cccc2c(-c3cn[nH]c3)c[nH]c12)c1ccccc1` (racemic) [Example 7, N-(3-(1H-pyrazol-4-yl)-1H-indol-7-yl)-2-amino-2-phenylacetamide], the IC50 in experiment [1] (PASMC, 0.5 h) worked out at 13 nM; in experiment [2], 34 nM.
`N#Cc1cccc(C(CN)C(=O)Nc2cccc3c(-c4cn[nH]c4)c[nH]c23)c1` (racemic) [Example 19, N-(3-(1H-pyrazol-4-yl)-1H-indol-7-yl)-3-amino-2-(3-cyanophenyl)propanamide]: the EC50 in experiment [3] is > 50 µM. In addition, the IC50 was found to be 0.92 nM in experiment [4] and 2.2 nM in experiment [2].
Consider `NCC(C(=O)Nc1cccc2c(-c3cn[nH]c3)c[nH]c12)C1CCCCC1` (racemic) [Example 22, 3-amino-2-cyclohexyl-N-[3-(1H-pyrazol-4-yl)-1H-indol-7-yl]propanamide], for which the IC50 in experiment [5] (PASMC, 0.5 h) turned out to be 1.5 nM; in experiment [4] it was 0.88 nM; in experiment [1] (PASMC, 0.5 h) it was 13 nM; in experiment [2] it was 1.1 nM.
With `NCC(C(=O)Nc1cccc2c(-c3cn[nH]c3)c[nH]c12)c1cccnc1` (racemic) [Example 31, N-(3-(1H-pyrazol-4-yl)-1H-indol-7-yl)-3-amino-2-(pyridin-3-yl)propanamide], the EC50 in experiment [3] is > 50 µM. The 50% inhibitory concentration (IC50) in experiment [4] amounted to 0.48 nM; in experiment [1] (PASMC, 0.5 h), 31 nM; in experiment [2], 1.2 nM.
Regarding `CN1CCN(CC(C(=O)Nc2cccc3c(-c4cn[nH]c4)c[nH]c23)c2ccccc2)CC1` (racemic) [Example 37, N-(3-(1H-pyrazol-4-yl)-1H-indol-7-yl)-3-(4-methylpiperazin-1-yl)-2-phenylpropanamide], the concentration for half-maximal inhibition (IC50) in experiment [5] (PASMC, 0.5 h) stood at 6.2 nM; in experiment [4], 0.43 nM; in experiment [1] (PASMC, 0.5 h), 8 nM; in experiment [2], 0.71 nM.
For the molecule `CN1CCC(C(C(=O)Nc2cccc3c(-c4cn[nH]c4)c[nH]c23)c2ccccc2)CC1` (racemic) [Example 43, N-(3-(1H-pyrazol-4-yl)-1H-indol-7-yl)-2-(1-methylpiperidin-4-yl)-2-phenylacetamide], the half-maximal inhibitory concentration (IC50) in experiment [5] (PASMC, 0.5 h) amounted to 18 nM; in experiment [4] it was 0.66 nM; in experiment [1] (PASMC, 0.5 h), 102 nM; in experiment [2], 1.3 nM.
For `CNC(=O)OCc1cccc(C(CN)C(=O)Nc2cccc3c(-c4cn[nH]c4)c[nH]c23)c1` (racemic) [Example 49, 3-(1-((3-(1H-pyrazol-4-yl)-1H-indol-7-yl)amino)-3-amino-1-oxopropan-2-yl)benzyl methylcarbamate], the 50% effective concentration (EC50) in experiment [3] is > 200 µM. For the same molecule, the IC50 was determined as 0.65 nM in experiment [4] and 0.86 nM in experiment [2].
For `NCC(Cc1ccccc1)C(=O)Nc1cccc2c(-c3cn[nH]c3)c[nH]c12` (racemic) [Example 52, 3-amino-2-benzyl-N-[3-(1H-pyrazol-4-yl)-1H-indol-7-yl]propanamide], the IC50 in experiment [4] was found to be 0.59 nM; in experiment [1] (PASMC, 0.5 h), 12 nM; in experiment [2], 0.93 nM.
For the molecule `NCC(C(=O)Nc1cccc2c(-c3cn[nH]c3)c[nH]c12)c1ccc(C(N)=O)cc1` (racemic) [Example 74, 4-(1-((3-(1H-pyrazol-4-yl)-1H-indol-7-yl)amino)-3-amino-1-oxopropan-2-yl)benzamide], in experiment [3], the concentration giving a half-maximal response (EC50) was > 200 µM. The results for the IC50 in experiment [4] and in experiment [2] were 0.62 nM and 2 nM, respectively.
In experiment [3], `NCCN1CCN(C(C(=O)Nc2cccc3c(-c4cn[nH]c4)c[nH]c23)c2ccccc2)CC1` (racemic) [Example 105, 2-[4-(2-aminoethyl)piperazin-1-yl]-2-phenyl-N-[3-(1H-pyrazol-4-yl)-1H-indol-7-yl]acetamide] returned an EC50 of 23.6 µM. For the same molecule, the IC50 in experiment [4] came to 0.22 nM; in experiment [1] (PASMC, 0.5 h), 95 nM; in experiment [2] it was 0.42 nM.
For `NCC(C(=O)Nc1cccc2c(-c3cn[nH]c3)c[nH]c12)C1CCCCC1` (single isomer, unassigned) [Example 23, N-(3-(1H-pyrazol-4-yl)-1H-indol-7-yl)-3-amino-2-cyclohexylpropanamide], the IC50 turned out to be 4.3 nM in experiment [5] (PASMC, 0.5 h); 0.13 nM in experiment [4]; 3.5 nM in experiment [1] (PASMC, 0.5 h); 0.19 nM in experiment [2].
In the same order, the values of `CN1CCC(C(C(=O)Nc2cccc3c(-c4cn[nH]c4)c[nH]c23)c2ccccc2)CC1` (single isomer, unassigned) [Example 45, N-(3-(1H-pyrazol-4-yl)-1H-indol-7-yl)-2-(1-methylpiperidin-4-yl)-2-phenylacetamide] are 11 nM, 0.27 nM, 29 nM and 0.53 nM.
With `NCC(C(=O)Nc1cccc2c(-c3cn[nH]c3)c[nH]c12)c1ccc(CO)nc1` (single isomer, unassigned) [Example 60, N-(3-(1H-pyrazol-4-yl)-1H-indol-7-yl)-3-amino-2-(6-(hydroxymethyl)pyridin-3-yl)propanamide], in experiment [3], the 50% effective concentration (EC50) is > 50 µM. Further, the IC50 in experiment [4] turned out to be 0.7 nM; in experiment [2] it was 2.3 nM.
Consider `COc1cccc(C(CN)NC(=O)c2cccc3c(-c4cn[nH]c4)c[nH]c23)c1` (single isomer, unassigned) [Example 136, N-(2-amino-1-(3-methoxyphenyl)ethyl)-3-(1H-pyrazol-4-yl)-1H-indole-7-carboxamide], for which the half-maximal inhibitory concentration (IC50) in experiment [5] (PASMC, 0.5 h) amounted to 1.9 nM; in experiment [4] it was 0.24 nM; in experiment [1] (PASMC, 0.5 h) it was 5.1 nM; in experiment [2], 0.62 nM.
With `N[C@H](C(=O)Nc1cccc2c(-c3cn[nH]c3)c[nH]c12)c1ccccc1` [Example 9, (2S)-2-amino-2-phenyl-N-[3-(1H-pyrazol-4-yl)-1H-indol-7-yl]acetamide], the IC50 in experiment [5] (PASMC, 0.5 h) amounted to 2.2 nM; in experiment [1] (PASMC, 0.5 h) it was 15 nM; in experiment [2], 0.24 nM.
Regarding `NC[C@@H](C(=O)Nc1cccc2c(-c3cn[nH]c3)c[nH]c12)c1ccc(COC(=O)CCCCCO[N+](=O)[O-])cc1` [Example 10, [4-[(1S)-1-(aminomethyl)-2-oxo-2-[[3-(1H-pyrazol-4-yl)-1H-indol-7-yl]amino]ethyl]phenyl]methyl 6-nitrooxyhexanoate], the 50% effective concentration (EC50) in experiment [3] was > 66.6 µM. For the same molecule, the concentration for half-maximal inhibition (IC50) in experiment [5] (PASMC, 0.5 h) amounted to 10 nM; in experiment [1] (PASMC, 0.5 h), 8.1 nM; in experiment [2], 1.6 nM.
With `NC[C@H](Cc1ccccc1)C(=O)Nc1cccc2c(-c3cn[nH]c3)c[nH]c12` [Example 54, (2S)-3-amino-2-benzyl-N-[3-(1H-pyrazol-4-yl)-1H-indol-7-yl]propanamide], the half-maximal inhibitory concentration (IC50) in experiment [4] stood at 0.09 nM; in experiment [2], 0.18 nM.
Molecule `NCC(C(=O)Nc1cccc2c(-c3cn[nH]c3)c[nH]c12)C1CCCOC1` (stereo not shown) [Example 91, 3-amino-2-(oxan-3-yl)-N-[3-(1H-pyrazol-4-yl)-1H-indol-7-yl]propanamide] returned an EC50 in experiment [3] of 24.4 µM. Further, the concentration for half-maximal inhibition (IC50) in experiment [4] was found to be 0.75 nM; in experiment [2] it was 1.2 nM.
As to `N[C@@H](Cc1c[nH]c2ccccc12)C(=O)Nc1cccc2c(-c3cn[nH]c3)c[nH]c12` [Example 109, (2S)-2-amino-3-(1H-indol-3-yl)-N-[3-(1H-pyrazol-4-yl)-1H-indol-7-yl]propanamide], the IC50 in experiment [4] worked out at 11 nM; in experiment [2] it was 15 nM.
Turning to `NC[C@@H](NC(=O)c1cccc2c(-c3cn[nH]c3)n[nH]c12)c1ccccc1` [Example 135, N-[(1S)-2-amino-1-phenyl-ethyl]-3-(1H-pyrazol-4-yl)-1H-indazole-7-carboxamide], the IC50 came out at 26 nM in experiment [5] (PASMC, 0.5 h); 1.2 nM in experiment [4]; 1.3 nM in experiment [1] (PASMC, 0.5 h); 4.5 nM in experiment [2].
Consider `NC[C@@H](NC(=O)c1cncc2c(-c3cn[nH]c3)c[nH]c12)c1ccccc1` [Example 148, N-[(1S)-2-amino-1-phenyl-ethyl]-3-(1H-pyrazol-4-yl)-1H-pyrrolo[3,2-c]pyridine-7-carboxamide], for which the results for the IC50 in experiment [4] and in experiment [2] were 5.7 nM and 21 nM, respectively.
In experiment [1] (PASMC, 0.5 h), `COc1cccc(C(CN)C(=O)Nc2ncnc3c(-c4cn[nH]c4)c[nH]c23)c1` (stereo not shown) [Example 154, N-(7-(1H-pyrazol-4-yl)-5H-pyrrolo[3,2-d]pyrimidin-4-yl)-3-amino-2-(3-methoxyphenyl)propanamide] came in with an IC50 of 8.3 nM.
In turn, `Cc1ccc(C(=O)OCc2ccc([C@@H](CN)C(=O)Nc3ccc4cnccc4c3)cc2)c(C)c1` [Netarsudil] came in with an EC50 in experiment [3] of 0.89 µM.
As for `NC[C@@H](C(=O)Nc1ccc2cnccc2c1)c1ccc(CO)cc1` [Netasudil-M1], the concentration for half-maximal inhibition (IC50) in experiment [5] is 22 nM; in experiment [1], 14 nM.
